Source: article PMC9494209 (RSC Advances, 2022)

How the values were obtained:
[1] = target: SARS-CoV-2 M^pro (Severe acute respiratory syndrome coronavirus 2, UniProt P0DTD1); assay: biochemical; assay type: biochemical; conditions: ± SE, triplicate readings; for IC50: IC50 against SARS-CoV-2 M^pro
[2] = test system: SARS-CoV-2; assay type: cell-based; conditions: for SI (selectivity index): IC50 Vero cell cytotoxicity divided by EC50 of the antiviral assay; for EC50: read-out: Antiviral assay (qPCR) EC50, Vero E6 cells, five concentrations, ± SE

SMILES | IC50 [1] [µM] | SI (selectivity index) [2] | EC50 [2] [µM] | IC50 against SARS-CoV-2 M^pro [1] | Antiviral assay (qPCR) Inhibition % ([2]; 10 µM) [%]
Cn1c(C(=O)Nc2ccc(Cl)cc2)cc2c(=O)n3ccccc3nc21 [Compound 22, N-(4-Chlorophenyl)-1-methyl-4-oxo-1,4-dihydropyrido[1,2-a]pyrrolo[2,3-d]pyrimidine-2-carboxamide] | 236 ± 4.29 | 1766 | 0.109 ± 0.0111 |  | 
CC(=O)c1cccc(NC(=O)c2cc3c(=O)n4ccccc4nc3n2C)c1 [Compound 25, N-(3-Acetylphenyl)-1-methyl-4-oxo-1,4-dihydropyrido[1,2-a]pyrrolo[2,3-d]pyrimidine-2-carboxamide] | 5.42 | 1135 |  | low micromolar concentrations | 
O=C(Nc1ccccc1F)c1cc2c(=O)n3ccccc3nc2n1Cc1ccccc1 [Compound 21, 1-Benzyl-N-(2-fluorophenyl)-4-oxo-1,4-dihydropyrido[1,2-a]pyrrolo[2,3-d]pyrimidine-2-carboxamide] | 25.4 ± 2.4 | 3544 |  |  | 
Cc1cc(NC(=O)c2cc3c(=O)n4cccc(C)c4nc3n2C)ccc1Br [Compound 28, N-(4-Bromo-3-methylphenyl)-1,9-dimethyl-4-oxo-1,4-dihydropyrido[1,2-a]pyrrolo[2,3-d]-pyrimidine-2-carboxamide] | 46 ± 8.62 | 1278 |  |  | 
Cc1cccn2c(=O)c3cc(C(=O)Nc4ccc(N(C)C)cc4)n(C)c3nc12 [Compound 26, N-(4-(Dimethylamino)phenyl)-1,9-dimethyl-4-oxo-1,4-dihydropyrido[1,2-a]pyrrolo[2,3-d]-pyrimidine-2-carboxamide] | 407.5 ± 3.44 | 2323 |  |  | 94.05
Cc1ccc(NC(=O)c2cc3c(=O)n4cccc(C)c4nc3n2C)cc1Cl [Compound 27, N-(3-Chloro-4-methylphenyl)-1,9-dimethyl-4-oxo-1,4-dihydropyrido[1,2-a]pyrrolo[2,3-d]-pyrimidine-2-carboxamide] | 165 ± 16.7 | 622.2 |  |  | 
CCc1ccc(NC(=O)c2cc3c(=O)n4ccccc4nc3n2C)cc1 [Compound 24, N-(4-Ethylphenyl)-1-methyl-4-oxo-1,4-dihydropyrido[1,2-a]pyrrolo[2,3-d]pyrimidine-2-carboxamide] | 82.2 ± 15 | 283.3 |  |  | 
Cn1c(C(=O)Nc2ccc3c(c2)OCCO3)cc2c(=O)n3ccccc3nc21 [Compound 29, N-(2,3-Dihydrobenzo[b][1,4]dioxin-6-yl)-1-methyl-4-oxo-1,4-dihydropyrido[1,2-a]pyrrolo-[2,3-d]pyrimidine-2-carboxamide] | 3.22 ± 2.83 | 2909 | 0.0519 ± 0.00512 | low micromolar concentrations | 
CCC(CC)COC(=O)[C@H](C)N[P@](=O)(OC[C@H]1O[C@@](C#N)(c2ccc3c(N)ncnn23)[C@H](O)[C@@H]1O)Oc1ccccc1 [Remdesivir, reference compound] |  | 7195 |  |  | 
